In article PMC13586308, “Cell type–selective targeting by heterobifunctional protein binders via in-cell enrichment” (Nature Communications, 2026):
Read-outs that look alike come from different tables or passages of the source.

Key:
PNT1A cells [1] = assay: CellTiter-Glo cell viability, PNT1A; assay type: cell-based; settings: concentrations of up to 1 µM
[2] = target: T1, His-BRD4^BD1 + eGFP-FKBP12 (Homo sapiens, UniProt O60885+P62942); assay: HTRF ternary complex formation BRD4 BD1 + EGFP-FKBP12; assay type: binding; settings: eGFP-FKBP12 5 µM, His-BRD4^BD1 100 nM; read-out: HTRF BRD4^BD1 + GFP-FKBP12 Kd
T1 construct: the His6-tag of the respective BD1 or BD2 domain of BRD4 and EGFP-labeled FKBP12

BRD2BD1 = target: T2, BRD2BD1 (Homo sapiens, UniProt P25440); assay: competitive FP assay, BRD2 BD1 -/+ FKBP12; assay type: binding
T2 construct: to the isolated BD1 and BD2 domains of BRD2, BRD3 and BRD4

PNT1A cells [3] = assay: co-culture live cell microscopy cell count, PNT1A; assay type: cell-based; settings: all concentrations
MYC mRNA = assay: wash-off experiment, MYC mRNA in MV4-11; assay type: cell-based, human
[4] = in vitro metabolic study (intrinsic clearance); assay type: in vitro ADME; settings: intrinsic clearance (Clint) study, rebuttal letter
Excerpt: 4.2. To strengthen the paper, the authors should consider conducting in vivo experiments to […]
a more comprehensive understanding of the therapeutic potential and pharmacokinetic […]
The current compounds were designed for mechanistic studies, not for in vivo experiments. To assess the possibility of animal studies we conducted an in vitro metabolic study for the two most advanced compounds (a1dj and b3c). […]
labile (see below). While we agree that it is exciting to explore the influence of the CellTrap effect on pharmacokinetic properties this must be explored in follow up studies, which require substantial medicinal chemistry optimization. With the current compounds we believe animal experiments are ethically not warranted.
4.3. Are there specific residues essential for the observed cooperativity? If so, empirically mapping these mutants and testing for a reduction in binding would help validate the structures and provide clues to the translatability of the CellTrap mechanism. […]
mediate the direct protein contacts to BRD4. To explore this, we measured binding of the homolog FKBP51, which differs in the loop/strand regions, to BRD4. […]
cooperativity for any compound, strongly supporting the relevance of the crystallographically observed contact. We discussed this in the text as:
In both ternary complexes, contacts to BRD4BD1 are formed by the tip of the so called 80s loop of […]

gene expression = assay: RNA sequencing, MV4-11; assay type: cell-based, human; settings: MV4-11, 6 h
Procedure: RNA was isolated using the Monarch Total RNA Isolation Kit. RNA quality was assessed using an Agilent TapeStation. All samples had calculated RINe values > 6 with a flat baseline. […] Samples were demultiplexed, and FastQ files were generated. Raw FASTQ reads were quality-filtered using fastp v1.3.2 to remove adapters, low-quality bases (Phred ≤ 5 in > 50% of read) and poly-N regions (> 10% N bases), retaining reads with Q20 ≥ 95% and Q30 ≥ 90%. GC content was calculated for clean reads. Filtered sequence reads were aligned to the human reference genome GRCh38 using HISAT2 v2.2.1, guided by GTF annotation. Mapped data were summarized on the gene level as Fragments Per Kilobase of transcript sequence per Millions base pairs sequenced (FPKM). Gene counts were quantified using featureCounts v2.0.6. Further data evaluation, normalization and pairwise differential expression analyses was done by DESeq2. For clustering, all differentially expressed genes were pooled as the differential gene set. FPKM values of genes were hierarchically clustered, rows were homogenized as Z-scores. For enrichment analysis of the differential expressed genes, cluster Profiler (Yu G, 2012) software was used on Gene Ontology (http://www.geneontology.org/) terms reflecting biological processes.

[5] = test system: human myeloma cell lines (HMCL); assay: cell viability, panel of human myeloma cell lines +/- FKBP12 PROTAC; assay type: cell-based; settings: all myeloma cell lines tested
[6] = cell uptake assay (LC-MS/MS) in MV4-11
[7] = test system: FKBP and BRD4 family members; assay: global proteomics after PROTAC treatment, MV4-11; assay type: cell-based, Homo sapiens
Procedure: Cell pellets equivalent to those used in the cell uptake assay were resuspended in 220 μL of 50 mM Tris pH 8.0, 2% SDS for 30 min at 850 rpm at RT, and centrifuged at 15000 g for 15 min. […] The supernatant was reduced with 5 mM DTT at 37 °C for 30 min then alkylated with 15 mM iodoacetamide at room temperature for 30 min in the dark. 150 μl of the solutions were subjected to a Protein Aggregation Capture digestion protocol using amine magnetic beads ([…]) and a King Fischer instrument (Thermo Scientific). In short, soluble proteins are captured on the magnetic beads and washed prior to the addition of 1/50 (w/w) trypsin (Promega) for an overnight digestion at 37 °C and 850 rpm. On the consecutive day, digested peptides are released, and the peptide concentration of the supernatants determined using a fluorimetric assay (Pierce). 200 ng peptide was loaded on Evotips (Evosep Biosystems). Peptides were separated on an Evosep One LC system coupled to a timsTOF Pro 2 instrument (Bruker) using a 30-sample-per-day method (44 min gradient). Peptides were resolved on an 8 cm, 1.5 μm x 150 μm Performance column (Evosep Biosystems). […] The relaxed-prot-inf option was used for library-free processing of the data. […] Match between runs (MBR) was enabled, and the normalization option switched on.

[8] = 15 µM FKBP12, read-out: Binding to BRD2BD1 + FKBP12 Kd
[9] = absence of FKBP12, read-out: Binding to BRD2BD1 - FKBP12 Kd

T2 sequence (P25440 74-180 limits assumed): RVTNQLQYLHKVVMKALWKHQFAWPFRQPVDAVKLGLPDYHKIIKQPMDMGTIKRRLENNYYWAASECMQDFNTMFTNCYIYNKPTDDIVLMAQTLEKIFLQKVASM
T1 sequence (P62942 2-108 limits assumed, other chains not shown): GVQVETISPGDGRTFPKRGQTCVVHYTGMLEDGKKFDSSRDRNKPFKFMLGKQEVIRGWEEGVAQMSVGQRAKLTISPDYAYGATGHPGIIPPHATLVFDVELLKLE

Cc1sc2c(c1C)C(c1ccc(Cl)cc1)=NC(CC(=O)N1CCC3(CC1)CC(n1cc(C4CN(Cc5ccccn5)C(=O)C5CCCC4N5S(=O)(=O)c4cc(Cl)cc(Cl)c4)nn1)C3)c1nnc(C)n1-2 (stereo not drawn) [a13c]
effect on PNT1A viability (PNT1A cells [1]): did not affect | Kd [2]: 13 ± 2 nM | α BRD2BD1 (BRD2BD1): 34 | Kd (BRD2BD1; [8]): 100 ± 14 nM | Kd (BRD2BD1; [9]): 3400 ± 1600 nM | effect on PNT1A cells in co-culture (PNT1A cells [3]): unaffected

Cc1sc2c(c1C)C(c1ccc(Cl)cc1)=NC(CC(=O)NCCOCCn1cc(COCC3CN(C(C)c4ccccn4)C(=O)C4CCCC3N4S(=O)(=O)c3cc(Cl)cc(Cl)c3)nn1)c1nnc(C)n1-2 (stereo not drawn) [a1dj]
persistence of MYC repression after compound wash-out (MYC mRNA): up to 24 h | in vitro metabolic stability [4]: metabolically labile | Kd [2]: 15 ± 3 nM | differentially expressed genes compared to JQ1-treated cells (gene expression): about 300 genes | α BRD2BD1 (BRD2BD1): 16 | Kd (BRD2BD1; [8]): 38 ± 6 nM | Kd (BRD2BD1; [9]): 610 ± 90 nM | cytotoxicity upon depletion of FKBP12 compared to JQ1 [5]: almost identical to JQ1 | effect of prior BRD4 depletion on cellular compound levels ([6]; BRD4-degrading PROTAC 43): did not affect cellular compound levels | concentration in the cellular fraction ([6]; MV4-11, 10 nM a1dj 2 h, mean across four independent experiments): 1680 ± 350 nM | reduction of intracellular accumulation upon FKBP12 degradation by PROTAC 5a1, mean ([6]; MV4-11, 100 nM 5a1): 51% | approximated concentration in the cellular fraction ([6]; MV4-11, earlier manuscript version quoted in rebuttal): > 1.8 µM | additional cellular enrichment mediated by other FKBPs ([6]; abolished by competition with 10 µM 18-(S)Me): 22% | FKBP12-mediated share of cellular accumulation ([6]; abolished by prior FKBP12 depletion, earlier manuscript version quoted in rebuttal): 58% | effect on BRD4 levels by global proteomics [7]: did not affect BRD4 levels

Cc1sc2c(c1C)C(c1ccc(C#CCNC(=O)COCCn3cc(C4CN(Cc5ccccn5)C(=O)C5CCCC4N5S(=O)(=O)c4cc(Cl)cc(Cl)c4)nn3)cc1)=NC(CC(=O)OC(C)(C)C)c1nnc(C)n1-2 (stereo not drawn) [b3c]
in vitro metabolic stability [4]: metabolically labile | Kd [2]: 1 ± 0.6 nM | differentially expressed genes compared to JQ1-treated cells (gene expression): about 300 genes | α BRD2BD1 (BRD2BD1): 8.2 | Kd (BRD2BD1; [8]): 9 ± 4 nM | Kd (BRD2BD1; [9]): 74 ± 20 nM
